Reference: PubChem BioAssay AID1963825 (Molecular Pharmacology Branch, DTP, NCI, 2024)
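Note: luminescence signal used as a surrogate for viable cells; spheroids exposed to drugs for seven days before readout.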

Experiment: Anticancer human tumor 997537-175-T-J1-PDC patient-derived colon adenocarcinoma cell line growth inhibition [POLQ]
Details: 997537-175-T-J1-PDC complex spheroid viability, combination with POLQ inhibitors; second compound 0.1 µM; first compound 1 µM; active compounds read low
Procedure, shortened: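 Growth inhibition in 3D: complex spheroids (tumor PDC, HUVEC, MSC) treated with POLQ inhibitor combinations; where Cmax unknown, highest tested concentration 10 microM, except SN-38 at 1 microM.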
For `O=c1[nH]cc(F)c(=O)[nH]1` + Nc1ccc(C#CCN(C(=O)Cc2ncc(C(F)(F)F)cc2C(F)(F)F)c2ccc(F)cc2)nn1, the viability, T/C was 103%.
In the case of `COc1ccc([C@@H](O)c2cc(-c3ncnc4cc(N5CCOCC5)ccc34)c(F)cc2Cl)nn1` + Cc1cccc(N(C)C(=O)C2C(O)CCN2c2nc(C)cc(C(F)(F)F)c2C#N)c1, the viability, T/C is reported as 106%.

Same assay, conditions: 997537-175-T-J1-PDC complex spheroid viability, combination with POLQ inhibitors; second compound 0.1 µM; first compound 3.16 µM; active compounds read low
For `Nc1ccn(C2OC(CO)C(O)C2(F)F)c(=O)n1` (configuration not stated) + Nc1ccc(C#CCN(C(=O)Cc2ncc(C(F)(F)F)cc2C(F)(F)F)c2ccc(F)cc2)nn1, the viability, T/C was 67.9%.
With `CCCS(=O)(=O)Nc1ccc(F)c(C(=O)c2c[nH]c3ncc(-c4ccc(Cl)cc4)cc23)c1F` + Nc1ccc(C#CCN(C(=O)Cc2ncc(C(F)(F)F)cc2C(F)(F)F)c2ccc(F)cc2)nn1 the viability, T/C was 82.8%.
For `O=c1[nH]cc(F)c(=O)[nH]1` + COC1C(OC(N)=O)C(O)C(Oc2ccc3c(O)c(NC(=O)c4ccc(O)c(CC=C(C)C)c4)c(=O)oc3c2C)OC1(C)C, the viability, T/C was 102%.
`O=c1[nH]cc(F)c(=O)[nH]1` + Nc1ccc(C#CCN(C(=O)Cc2ncc(C(F)(F)F)cc2C(F)(F)F)c2ccc(F)cc2)nn1 showed a viability, T/C of 82.6%.
With `COc1ccc([C@@H](O)c2cc(-c3ncnc4cc(N5CCOCC5)ccc34)c(F)cc2Cl)nn1` + Cc1cccc(N(C)C(=O)C2C(O)CCN2c2nc(C)cc(C(F)(F)F)c2C#N)c1 the viability, T/C was 101%.

Same assay, conditions: 997537-175-T-J1-PDC complex spheroid viability, combination with POLQ inhibitors; second compound 0.1 µM; first compound 10 µM; active compounds read low
`Nc1ccn(C2OC(CO)C(O)C2(F)F)c(=O)n1` (configuration not stated) + Nc1ccc(C#CCN(C(=O)Cc2ncc(C(F)(F)F)cc2C(F)(F)F)c2ccc(F)cc2)nn1 showed a viability, T/C of 47.3%.
Molecule `CCCS(=O)(=O)Nc1ccc(F)c(C(=O)c2c[nH]c3ncc(-c4ccc(Cl)cc4)cc23)c1F` + Nc1ccc(C#CCN(C(=O)Cc2ncc(C(F)(F)F)cc2C(F)(F)F)c2ccc(F)cc2)nn1 has a viability, T/C of 37.9%.
With `O=c1[nH]cc(F)c(=O)[nH]1` + COC1C(OC(N)=O)C(O)C(Oc2ccc3c(O)c(NC(=O)c4ccc(O)c(CC=C(C)C)c4)c(=O)oc3c2C)OC1(C)C the viability, T/C was 90.3%.
`O=c1[nH]cc(F)c(=O)[nH]1` + Nc1ccc(C#CCN(C(=O)Cc2ncc(C(F)(F)F)cc2C(F)(F)F)c2ccc(F)cc2)nn1 showed a viability, T/C of 88.1%.
`COc1ccc([C@@H](O)c2cc(-c3ncnc4cc(N5CCOCC5)ccc34)c(F)cc2Cl)nn1` + Cc1cccc(N(C)C(=O)C2C(O)CCN2c2nc(C)cc(C(F)(F)F)c2C#N)c1 showed a viability, T/C of 77.7%.

Same assay, conditions: 997537-175-T-J1-PDC complex spheroid viability, combination with POLQ inhibitors; second compound 0.316 µM; first compound 0.0316 µM; active compounds read low
In the case of `Nc1ccn(C2OC(CO)C(O)C2(F)F)c(=O)n1` (configuration not stated) + Nc1ccc(C#CCN(C(=O)Cc2ncc(C(F)(F)F)cc2C(F)(F)F)c2ccc(F)cc2)nn1, the viability, T/C is reported as 97.9%.
`CCCS(=O)(=O)Nc1ccc(F)c(C(=O)c2c[nH]c3ncc(-c4ccc(Cl)cc4)cc23)c1F` + Nc1ccc(C#CCN(C(=O)Cc2ncc(C(F)(F)F)cc2C(F)(F)F)c2ccc(F)cc2)nn1 showed a viability, T/C of 90.3%.
Work on `O=c1[nH]cc(F)c(=O)[nH]1` + COC1C(OC(N)=O)C(O)C(Oc2ccc3c(O)c(NC(=O)c4ccc(O)c(CC=C(C)C)c4)c(=O)oc3c2C)OC1(C)C yielded a viability, T/C of 95.3%.
`O=c1[nH]cc(F)c(=O)[nH]1` + Nc1ccc(C#CCN(C(=O)Cc2ncc(C(F)(F)F)cc2C(F)(F)F)c2ccc(F)cc2)nn1 showed a viability, T/C of 95%.
With `COc1ccc([C@@H](O)c2cc(-c3ncnc4cc(N5CCOCC5)ccc34)c(F)cc2Cl)nn1` + Cc1cccc(N(C)C(=O)C2C(O)CCN2c2nc(C)cc(C(F)(F)F)c2C#N)c1 the viability, T/C was 104%.

Same assay, conditions: 997537-175-T-J1-PDC complex spheroid viability, combination with POLQ inhibitors; second compound 0.316 µM; first compound 0.1 µM; active compounds read low
`Nc1ccn(C2OC(CO)C(O)C2(F)F)c(=O)n1` (configuration not stated) + Nc1ccc(C#CCN(C(=O)Cc2ncc(C(F)(F)F)cc2C(F)(F)F)c2ccc(F)cc2)nn1 showed a viability, T/C of 102%.
In the case of `CCCS(=O)(=O)Nc1ccc(F)c(C(=O)c2c[nH]c3ncc(-c4ccc(Cl)cc4)cc23)c1F` + Nc1ccc(C#CCN(C(=O)Cc2ncc(C(F)(F)F)cc2C(F)(F)F)c2ccc(F)cc2)nn1, the viability, T/C is reported as 88.3%.
Work on `O=c1[nH]cc(F)c(=O)[nH]1` + COC1C(OC(N)=O)C(O)C(Oc2ccc3c(O)c(NC(=O)c4ccc(O)c(CC=C(C)C)c4)c(=O)oc3c2C)OC1(C)C yielded a viability, T/C of 103%.
In the case of `O=c1[nH]cc(F)c(=O)[nH]1` + Nc1ccc(C#CCN(C(=O)Cc2ncc(C(F)(F)F)cc2C(F)(F)F)c2ccc(F)cc2)nn1, the viability, T/C is reported as 102%.
`COc1ccc([C@@H](O)c2cc(-c3ncnc4cc(N5CCOCC5)ccc34)c(F)cc2Cl)nn1` + Cc1cccc(N(C)C(=O)C2C(O)CCN2c2nc(C)cc(C(F)(F)F)c2C#N)c1 showed a viability, T/C of 109%.

Same assay, conditions: 997537-175-T-J1-PDC complex spheroid viability, combination with POLQ inhibitors; second compound 0.316 µM; first compound 0.316 µM; active compounds read low
`Nc1ccn(C2OC(CO)C(O)C2(F)F)c(=O)n1` (configuration not stated) + Nc1ccc(C#CCN(C(=O)Cc2ncc(C(F)(F)F)cc2C(F)(F)F)c2ccc(F)cc2)nn1 showed a viability, T/C of 81.8%.
`CCCS(=O)(=O)Nc1ccc(F)c(C(=O)c2c[nH]c3ncc(-c4ccc(Cl)cc4)cc23)c1F` + Nc1ccc(C#CCN(C(=O)Cc2ncc(C(F)(F)F)cc2C(F)(F)F)c2ccc(F)cc2)nn1 showed a viability, T/C of 78.4%.
Work on `O=c1[nH]cc(F)c(=O)[nH]1` + COC1C(OC(N)=O)C(O)C(Oc2ccc3c(O)c(NC(=O)c4ccc(O)c(CC=C(C)C)c4)c(=O)oc3c2C)OC1(C)C yielded a viability, T/C of 105%.
Molecule `O=c1[nH]cc(F)c(=O)[nH]1` + Nc1ccc(C#CCN(C(=O)Cc2ncc(C(F)(F)F)cc2C(F)(F)F)c2ccc(F)cc2)nn1 has a viability, T/C of 103%.
`COc1ccc([C@@H](O)c2cc(-c3ncnc4cc(N5CCOCC5)ccc34)c(F)cc2Cl)nn1` + Cc1cccc(N(C)C(=O)C2C(O)CCN2c2nc(C)cc(C(F)(F)F)c2C#N)c1 showed a viability, T/C of 106%.
